Test results from publication PMC7290078, “Agonist bias and agonist‐dependent antagonism at corticotrophin releasing factor receptors” (Pharmacology Research & Perspectives, 2020).
Where two headings read alike, the source gives them in different places. No end group written: not given here.

Assays:
CRF1 receptor (hCRF1α) [1] = molecular target: T1, CRF1 receptor (hCRF1α) (Homo sapiens, UniProt P34998); experiment: cAMP accumulation (LANCE) in Cos7 cells transfected with hCRF1α, agonist stimulation; format: cell-based; details: cAMP, CRF1 receptor, antagonist alone, n = 3
T1 construct: host or cells: Cos7 cells, transient transfection (PEI), pcDNA3.0/3.1 vector
T1 sequence (P34998 24-415): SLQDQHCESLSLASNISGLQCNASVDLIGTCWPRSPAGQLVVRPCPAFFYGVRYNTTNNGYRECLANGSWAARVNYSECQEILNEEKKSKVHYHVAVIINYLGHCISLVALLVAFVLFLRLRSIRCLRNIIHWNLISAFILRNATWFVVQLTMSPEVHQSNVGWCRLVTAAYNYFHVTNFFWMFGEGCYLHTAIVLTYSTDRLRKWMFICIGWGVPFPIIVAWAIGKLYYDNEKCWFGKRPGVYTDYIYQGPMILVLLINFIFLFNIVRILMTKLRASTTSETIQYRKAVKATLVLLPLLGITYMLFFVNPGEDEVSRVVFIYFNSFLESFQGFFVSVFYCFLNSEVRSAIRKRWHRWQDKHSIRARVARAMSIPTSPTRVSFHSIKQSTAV
Source text: (§1) Plasmids containing hCRF1α and hCRF2α (GenBank accession numbers AY457172 and AY449734) were obtained from the cDNA Resource Centre (Bloomsburg University) and are referred to as CRF1 and CRF2 in this manuscript. Hemagglutinin (HA) epitope‐tagged human Calcitonin (CT) receptor (CT(a) splice variant) and myc‐tagged human RAMP1 were used as described previously. ^27 HA‐tagged human calcitonin receptor‐like receptor (CLR), N‐terminal FLAG‐tagged human RAMP3 and N‐terminal myc‐tagged human RAMP3 were a gift from Professor David Poyner (Aston University) and Professor Patrick Sexton (Monash University), respectively. N‐terminal FLAG‐tagged human RAMP2 was used as described previously. ^28 All receptors and RAMPs were cloned in pcDNA3.0 or pcDNA3.1 plasmid vectors. All plasmid inserts were sequenced at the Centre for Genomics, Proteomics and Metabolomics (University of Auckland) and the sequences were verified prior to use.
Cos7, HEK‐293S, and HEK‐293T cells were cultured as described previously. ^28 , ^29 Cos7 cells were originally supplied by the ATCC to Associate Professor Nigel Birch (University of Auckland). HEK‐293S cells were a gift from Professor David Poyner (Aston University) and HEK‐293T cells a gift from Professor John Taylor (University of Auckland). Briefly, all cell lines were cultured in Dulbecco's Modified Eagle Medium (DMEM) supplemented with 8% heat inactivated fetal bovine serum (FBS) and maintained in a humidified incubator at 37°C with 5% CO2. For transfection, cells were counted (Countess CounterTM; Life Technologies) and plated at a density of 20 000 cells per well in 96‐well plates. The cells were transiently transfected 48 hours prior to assaying using polyethylenimine (PEI), as described previously. ^28 , ^29 In all experiments a total of 0.25 μg DNA was transfected per well. In the majority of experiments 0.25 μg DNA of receptor‐containing plasmid or the pcDNA3.1 plasmid without an insert was used. For experiments involving RAMPs, 0.125 μg of receptor DNA and 0.125 μg of RAMP‐containing plasmid DNA were transfected to give a 1:1 ratio of receptor to RAMP. […]
cAMP accumulation in Cos7 cells transfected with hCRF1α or hCRF2α receptors was measured using the LANCE cAMP detection assay kit (PerkinElmer Life and Analytical Sciences) as described previously. ^30 Briefly, culture media was removed and replaced with DMEM containing 0.1% bovine albumin serum (BSA) and 1 mmol/L 3‐isobutyl‐1‐methylxanthine (IBMX) for 30 minutes at 37°C. […] Samples were shaken for 15 minutes before 5 µL cell lysate was transferred to a white 384‐well optiplate and processed for cAMP quantification as described previously. ^31 Samples were read using an Envision plate reader (PerkinElmer). cAMP concentrations were determined from a standard curve generated in duplicate. […]

CRF2 receptor (hCRF2α) [2] = molecular target: T2, CRF2 receptor (hCRF2α) (Homo sapiens, UniProt Q13324); experiment: cAMP accumulation (LANCE) in Cos7 cells transfected with hCRF2α, agonist stimulation; format: cell-based; details: COS-7; cAMP, CRF2 receptor, antagonist alone; n = 3; read-out: E max (partial agonism of antagonist)
T2 construct: host or cells: Cos7 cells, transient transfection (PEI), pcDNA3.0/3.1 vector
T2 sequence (Q13324 1-411): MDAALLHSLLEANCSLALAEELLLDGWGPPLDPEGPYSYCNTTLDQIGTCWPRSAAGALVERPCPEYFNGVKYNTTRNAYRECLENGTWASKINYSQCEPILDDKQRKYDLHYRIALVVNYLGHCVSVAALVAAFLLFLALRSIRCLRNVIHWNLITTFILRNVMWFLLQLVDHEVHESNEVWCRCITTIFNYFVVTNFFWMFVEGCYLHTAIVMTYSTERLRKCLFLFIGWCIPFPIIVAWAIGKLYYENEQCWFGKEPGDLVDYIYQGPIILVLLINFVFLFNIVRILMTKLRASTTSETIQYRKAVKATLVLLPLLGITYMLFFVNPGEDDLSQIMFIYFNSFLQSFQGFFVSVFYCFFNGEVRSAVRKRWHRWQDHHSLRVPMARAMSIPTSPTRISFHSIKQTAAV
Source text: as §1
(§2) Cos7, HEK‐293S, and HEK‐293T cells were cultured as described previously. ^28 , ^29 Cos7 cells were originally supplied by the ATCC to Associate Professor Nigel Birch (University of Auckland). HEK‐293S cells were a gift from Professor David Poyner (Aston University) and HEK‐293T cells a gift from Professor John Taylor (University of Auckland). Briefly, all cell lines were cultured in Dulbecco's Modified Eagle Medium (DMEM) supplemented with 8% heat inactivated fetal bovine serum (FBS) and maintained in a humidified incubator at 37°C with 5% CO2. For transfection, cells were counted (Countess CounterTM; Life Technologies) and plated at a density of 20 000 cells per well in 96‐well plates. The cells were transiently transfected 48 hours prior to assaying using polyethylenimine (PEI), as described previously. ^28 , ^29 In all experiments a total of 0.25 μg DNA was transfected per well. In the majority of experiments 0.25 μg DNA of receptor‐containing plasmid or the pcDNA3.1 plasmid without an insert was used. For experiments involving RAMPs, 0.125 μg of receptor DNA and 0.125 μg of RAMP‐containing plasmid DNA were transfected to give a 1:1 ratio of receptor to RAMP. Where the RAMP or receptor were transfected alone, the ratio of DNA was made up with the pcDNA3.1 plasmid.
(§3) cAMP accumulation in Cos7 cells transfected with hCRF1α or hCRF2α receptors was measured using the LANCE cAMP detection assay kit (PerkinElmer Life and Analytical Sciences) as described previously. ^30 Briefly, culture media was removed and replaced with DMEM containing 0.1% bovine albumin serum (BSA) and 1 mmol/L 3‐isobutyl‐1‐methylxanthine (IBMX) for 30 minutes at 37°C. Cells were incubated for an additional 15 minutes at 37°C with media or agonist concentrations of 1 pmol/L to 1 µmol/L for agonist only assays or 10 pmol/L to 10 µmol/L concentrations for antagonist experiments. Antagonists were added simultaneously or immediately prior to the addition of agonists. To stop cell stimulation and extract cAMP, the contents of the wells were replaced with 50 µL absolute ethanol. Samples were left at −20°C for a minimum of 10 minutes. The ethanol was evaporated and replaced with 50 µL of cAMP detection buffer. Samples were shaken for 15 minutes before 5 µL cell lysate was transferred to a white 384‐well optiplate and processed for cAMP quantification as described previously. ^31 Samples were read using an Envision plate reader (PerkinElmer). cAMP concentrations were determined from a standard curve generated in duplicate.
(§4) In all experiments the position of peptides and antagonists (pharmacology) or transfected receptors (ELISAs) on assay plates was randomized during each independent experiment, which are independent biological replicates. In all cases, duplicate, triplicate, or quadruplicate technical replicates were conducted for each independent experiment.

CRF1 receptor (hCRF1α) [3] = molecular target: T1, CRF1 receptor (hCRF1α); experiment: Antagonism of agonist-mediated cAMP accumulation in Cos7 cells expressing CRF1 receptors; format: cell-based; details: for Kb: hCRF1α, global Schild analysis, mean ± SEM, read-out: antagonist potency (pKB) (converted)
CRF2 receptor = details: cited from earlier work
CRF2 receptor (hCRF2α) [4] = molecular target: T2, CRF2 receptor (hCRF2α); experiment: Antagonism of agonist-mediated cAMP accumulation in Cos7 cells expressing CRF2 receptors; format: cell-based; details: for Kb: hCRF2α, global Schild analysis, mean ± SEM, n = 5, read-out: antagonist potency (pKB) (converted)
Source text: as §1, §2, §3, §4

CRF receptor type 1 = tested on: CRF receptor type 1; parameters: method as in PMID 17057757; details: blockade of UCN1; cited from earlier work

## DLTFHLLREMLEMAKAEQEAEQAALNRLLLEEA-NH2 [α‐helical CRF(9‐41)] [listing 1 of 2 here]
CRF1 receptor (hCRF1α) [1]; COS-7, read-out: E max (partial agonism of antagonist)
  Emax: 14.8%

## CCCC[C@H](NC(=O)[C@H](CCCCN)NC(=O)[C@H](CCCNC(=N)N)NC(=O)[C@H](CC(C)C)NC(=O)[C@](C)(CC(C)C)NC(=O)[C@H](Cc1c[nH]cn1)NC(=O)[C@@H](Cc1ccccc1)NC(=O)[C@H](CO)NC(=O)[C@H](CC(C)C)NC(=O)[C@H](CC(=O)O)NC(C)=O)C(=O)N[C@H](C(=O)N[C@@H](CCC(=O)O)C(=O)N[C@H](C(=O)N[C@@H](CCC(=O)O)C(=O)N[C@@H](CCCCN)C(=O)N[C@@H](CCC(N)=O)C(=O)N[C@@H](CCC(=O)O)C(=O)N[C@@H](CCCCN)C(=O)N[C@@H](CCC(=O)O)C(=O)N[C@@H](CCCCN)C(=O)N[C@@H](CCC(N)=O)C(=O)N[C@@H](CCC(N)=O)C(=O)N[C@@H](C)C(=O)N[C@H]1CCC(=O)NCCCC[C@@H](C(=O)N[C@@H](CC(C)C)C(=O)N[C@@H](CC(C)C)C(=O)N[C@@H](CC(C)C)C(=O)N[C@@H](CC(=O)O)C(=O)N[C@@](C)(CC(C)C)C(=O)N[C@H](C(N)=O)[C@@H](C)CC)NC(=O)[C@H](CC(N)=O)NC(=O)[C@H](CC(N)=O)NC1=O)[C@@H](C)CC)[C@@H](C)CC [astressin2B]
CRF2 receptor (hCRF2α) [2]
  Emax: 11%
CRF1 receptor (hCRF1α) [1]
  partial agonism: this was not the case at the CRF1 receptor
CRF1 receptor (hCRF1α) [3]; agonist CRF, cAMP, n = 5
  Kb: 479 nM
CRF1 receptor (hCRF1α) [3]; agonist UCN1, cAMP, n = 5 (CP‐376,395), n = 3 (astressin2B)
  Kb: > 5010 nM
CRF1 receptor (hCRF1α) [3]; up to 5 μmol/L, CRF1 receptor
  antagonism of UCN1‐mediated cAMP signaling: did not measurably antagonize
CRF2 receptor
  selectivity: selective antagonist of the CRF2 receptor
CRF2 receptor (hCRF2α) [4]; CRF2 receptor
  potency against CRF‐mediated relative to UCN1‐mediated cAMP signaling: approximately 10 fold
CRF2 receptor (hCRF2α) [4]; agonist CRF, cAMP
  Kb: 0.302 nM
CRF2 receptor (hCRF2α) [4]; agonist UCN1, cAMP
  Kb: 3.63 nM
CRF2 receptor (hCRF2α) [4]; antagonism of either CRF or UCN1‐induced cAMP signaling
  potency at CRF2 receptor compared to CRF1 receptor: at least 1000 fold

## CCCCN(CC)c1nc(C)nc2c1c(C)c(C)n2-c1c(C)cc(C)cc1C [antalarmin]
CRF receptor type 1
  mode of antagonism of Gαi activity: non‐competitive antagonist of Gαi activity
  mode of antagonism of Gαs activity: competitive antagonist of Gαs

## DLTFHLLREMLEMAKAEQEAEQAALNRLLLEEA-NH2 [α‐helical CRF(9‐41)] [listing 2 of 2 here]
CRF1 receptor (hCRF1α) [3]; agonist CRF, cAMP, n = 5
  Kb: 170 nM
CRF2 receptor (hCRF2α) [4]; agonist CRF, cAMP
  Kb: 18.6 nM
